Test results reported in PubChem BioAssay AID330 (DTP/NCI, 2004).
Values joined by “and” are separate entries in the source; they are usually repeats but may differ in a detail not shown here. Identical values can stand only once. Toxic doses and inconclusive results are not listed. Rule for the calls: active = survival T/C of 150% or more; inactive = T/C below 125% in these data.

Test system: P388 leukemia ip, CD2F1 mice, survival T/C
Assay: NCI In Vivo Anticancer Drug Screen. Data for tumor model P388 Leukemia (intraperitoneal) in CD2F1 (CDF1) mice
Conditions: endpoint: median survival time, higher = longer survival
Summary of the method: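 Mice carrying the transplanted tumor received test compound or vehicle. Survival was recorded in each group, and the value is the treated-group measurement divided by that of the vehicle-treated control group.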

[1] = dose: 50.0 mg/kg/injection, schedule: Q04DX002 (ip), vehicle: saline with Tween-80
[2] = dose: 60.0 mg/kg/injection, schedule: Q01DX005 (ip), vehicle: saline with Tween-80
[3] = dose: 120.0 mg/kg/injection, schedule: Q01DX005 (ip), vehicle: saline with Tween-80
[4] = dose: 240.0 mg/kg/injection, schedule: Q01DX005 (ip), vehicle: saline with Tween-80
[5] = dose: 50.0 mg/kg/injection, schedule: Q01DX005 (ip), vehicle: saline with Tween-80
[6] = dose: 100.0 mg/kg/injection, schedule: Q01DX005 (ip), vehicle: saline with Tween-80
[7] = dose: 200.0 mg/kg/injection, schedule: Q01DX005 (ip), vehicle: saline with Tween-80
[8] = dose: 50.0 mg/kg/injection, schedule: Q01DX009 (ip), vehicle: saline with Tween-80
[9] = dose: 3.75 mg/kg/injection, schedule: Q01DX005 (ip), vehicle: Klucel (hydroxypropylcellulose) (HPC)
[10] = dose: 7.5 mg/kg/injection, schedule: Q01DX005 (ip), vehicle: Klucel (hydroxypropylcellulose) (HPC)

Measured: T/C

Cc1ccc2c(c1)c(N=NC(N)=S)c(O)n2C1OC(CO)C(O)C(O)C1O (centres undefined)
inactive: dose: 32.0 mg/kg/injection, schedule: Q01DX009 (ip), vehicle: saline with Tween-80 102 % of control | dose: 64.0 mg/kg/injection, schedule: Q01DX009 (ip), vehicle: saline with Tween-80 95 % of control | dose: 128.0 mg/kg/injection, schedule: Q01DX009 (ip), vehicle: saline with Tween-80 98 % of control

CN=C(N)N/N=C(\C)c1ccc(Cl)c(Cl)c1
inactive: dose: 25.0 mg/kg/injection, schedule: Q04DX002 (ip), vehicle: saline with Tween-80 100 % of control | [1] 99 % of control

O=C(CCCC(=O)Nc1cccc2[nH]c3ccccc3c(=O)c12)Nc1cccc2[nH]c3ccccc3c(=O)c12
inactive: [2] 100 % of control | [3] 88 % of control | [4] 100 % of control

C=CCn1c(COc2c(I)cc(I)c3cccnc23)n[nH]c1=S
inactive: dose: 6.25 mg/kg/injection, schedule: Q01DX005 (ip), vehicle: Klucel (hydroxypropylcellulose) (HPC) 100 % of control and 96 % of control | dose: 12.5 mg/kg/injection, schedule: Q01DX005 (ip), vehicle: Klucel (hydroxypropylcellulose) (HPC) 108 % of control and 115 % of control | dose: 25.0 mg/kg/injection, schedule: Q01DX005 (ip), vehicle: Klucel (hydroxypropylcellulose) (HPC) 106 % of control | dose: 50.0 mg/kg/injection, schedule: Q01DX005 (ip), vehicle: Klucel (hydroxypropylcellulose) (HPC) 114 % of control

O=C(O)CCC12CCCCC1=NC1(CCCCC1)NC2=O (centres undefined)
inactive: dose: 60.0 mg/kg/injection, schedule: Q01DX005 (ip), vehicle: Klucel (hydroxypropylcellulose) (HPC) 104 % of control | dose: 60.0 mg/kg/injection, schedule: Q02DX002 (ip), vehicle: Klucel (hydroxypropylcellulose) (HPC) 102 % of control | dose: 120.0 mg/kg/injection, schedule: Q01DX005 (ip), vehicle: Klucel (hydroxypropylcellulose) (HPC) 100 % of control | dose: 120.0 mg/kg/injection, schedule: Q02DX002 (ip), vehicle: Klucel (hydroxypropylcellulose) (HPC) 97 % of control | dose: 240.0 mg/kg/injection, schedule: Q01DX005 (ip), vehicle: Klucel (hydroxypropylcellulose) (HPC) 100 % of control | dose: 240.0 mg/kg/injection, schedule: Q02DX002 (ip), vehicle: Klucel (hydroxypropylcellulose) (HPC) 103 % of control

O=[N+]([O-])c1ccc(Sc2cccc[n+]2[O-])c2nonc12
inactive: dose: 1.87 mg/kg/injection, schedule: Q01DX009 (ip), vehicle: Klucel (hydroxypropylcellulose) (HPC) 107 % of control | dose: 3.75 mg/kg/injection, schedule: Q01DX009 (ip), vehicle: Klucel (hydroxypropylcellulose) (HPC) 99 % of control | dose: 7.5 mg/kg/injection, schedule: Q01DX009 (ip), vehicle: Klucel (hydroxypropylcellulose) (HPC) 101 % of control

COc1cccc2c1C(=O)c1c(O)c3c(c(O)c1C2=O)CC(O)(C(=O)CO)CC3OC1CC2C(OC3COCC(C#N)N32)C(C)O1 (centres undefined)
inactive: dose: 0.5 mg/kg/injection, schedule: Q04DX003 (ip), vehicle: saline with Tween-80 102 % of control and 120 % of control | dose: 1.0 mg/kg/injection, schedule: Q04DX003 (ip), vehicle: saline with Tween-80 116 % of control | dose: 4.0 mg/kg/injection, schedule: Q04DX003 (ip), vehicle: saline with Tween-80 113 % of control

FC(F)(F)C1(C(F)(F)F)CC2COc3ccccc3C2=N1 (centres undefined)
inactive: dose: 50.0 mg/kg/injection, schedule: Q04DX002 (ip), vehicle: suspension in saline 100 % of control | dose: 100.0 mg/kg/injection, schedule: Q04DX002 (ip), vehicle: suspension in saline 99 % of control | dose: 200.0 mg/kg/injection, schedule: Q04DX002 (ip), vehicle: suspension in saline 100 % of control

Cc1ccc(Sc2ccc3ccccc3n2)cc1
inactive: [5] 90 % of control | [6] 101 % of control | [7] 104 % of control

COC1(OC)CCC(=O)N(Cc2ccccc2)c2cc(C)c(N(Cc3ccccc3)S(=O)(=O)c3ccc(C)cc3)cc2C1C (centres undefined)
inactive: dose: 12.5 mg/kg/injection, schedule: Q01DX005 (ip), vehicle: saline with Tween-80 95 % of control | dose: 25.0 mg/kg/injection, schedule: Q01DX005 (ip), vehicle: saline with Tween-80 90 % of control | [5] 86 % of control and 95 % of control

CCOC(=O)C(Cc1c[nH]c2ccccc12)NCc1ccc(N(CCCl)CCCl)cc1 (centres undefined)
inactive: dose: 10.0 mg/kg/injection, schedule: Q01DX009 (ip), vehicle: saline with Tween-80 94 % of control | dose: 20.0 mg/kg/injection, schedule: Q01DX009 (ip), vehicle: saline with Tween-80 110 % of control | dose: 40.0 mg/kg/injection, schedule: Q01DX009 (ip), vehicle: saline with Tween-80 110 % of control | [8] 97 % of control | dose: 80.0 mg/kg/injection, schedule: Q01DX009 (ip), vehicle: saline with Tween-80 123 % of control | dose: 100.0 mg/kg/injection, schedule: Q01DX009 (ip), vehicle: saline with Tween-80 106 % of control

NC(N)=N/N=C/c1ccc[nH]1
inactive: [5] 104 % of control | [6] 106 % of control | [7] 104 % of control

CC1CC(=O)c2c(nn(C)c2COCc2ccccc2)C1 (centres undefined)
inactive: [2] 102 % of control | [3] 91 % of control | [4] 96 % of control

OC1COCC1O (centres undefined)
inactive: dose: 25.0 mg/kg/injection, schedule: Q01DX009 (ip), vehicle: Klucel (hydroxypropylcellulose) (HPC) 100 % of control | dose: 50.0 mg/kg/injection, schedule: Q01DX009 (ip), vehicle: Klucel (hydroxypropylcellulose) (HPC) 102 % of control | dose: 100.0 mg/kg/injection, schedule: Q01DX009 (ip), vehicle: Klucel (hydroxypropylcellulose) (HPC) 100 % of control

O=C(O)c1cnc2cc(C(F)(F)F)ccc2c1Nc1ccc2c(c1)OCO2
inactive: dose: 60.0 mg/kg/injection, schedule: Q01DX005 (ip), vehicle: Klucel + Tween-80 103 % of control | dose: 120.0 mg/kg/injection, schedule: Q01DX005 (ip), vehicle: Klucel + Tween-80 98 % of control | dose: 240.0 mg/kg/injection, schedule: Q01DX005 (ip), vehicle: Klucel + Tween-80 97 % of control

COc1cc(/C=C/C(C)=N/NC(N)=S)cc(OC)c1OC
inactive: [9] 102 % of control | [10] 105 % of control | dose: 15.0 mg/kg/injection, schedule: Q01DX005 (ip), vehicle: Klucel (hydroxypropylcellulose) (HPC) 99 % of control | dose: 30.0 mg/kg/injection, schedule: Q01DX005 (ip), vehicle: Klucel (hydroxypropylcellulose) (HPC) 90 % of control and 94 % of control

COc1cc(/C=C2\SC(=S)N(CCCN3CCOCC3)C2=O)ccc1O
inactive: [8] 91 % of control

O=C(O)C1CC(Cl)C(O)C(Cl)C1 (centres undefined)
inactive: [5] 100 % of control | [6] 97 % of control | [7] 100 % of control

CC1C(=O)OC2C1CCC1(C)C=C(Cl)C(=O)C3(C)OC213 (centres undefined)
inactive: [1] 100 % of control | dose: 100.0 mg/kg/injection, schedule: Q04DX002 (ip), vehicle: saline with Tween-80 100 % of control | dose: 200.0 mg/kg/injection, schedule: Q04DX002 (ip), vehicle: saline with Tween-80 100 % of control

CCCCCCCCCCCCC(C(=O)O)C(C)C(=O)O (centres undefined)
inactive: dose: 0.25 mg/kg/injection, schedule: Q01DX009 (ip), vehicle: saline with Tween-80 96 % of control | dose: 0.5 mg/kg/injection, schedule: Q01DX009 (ip), vehicle: saline with Tween-80 102 % of control | dose: 1.0 mg/kg/injection, schedule: Q01DX009 (ip), vehicle: saline with Tween-80 104 % of control

O=C(Nc1ccc(Cl)cc1)Nc1nnc(-c2cccc(Cl)c2)o1
inactive: dose: 7.5 mg/kg/injection, schedule: Q01DX005 (ip), vehicle: saline with Tween-80 95 % of control | dose: 15.0 mg/kg/injection, schedule: Q01DX005 (ip), vehicle: saline with Tween-80 90 % of control and 93 % of control | [2] 89 % of control | [4] 91 % of control

O=C(O)C(CS)NSc1ccccc1[N+](=O)[O-] (centres undefined)
inactive: [2] 111 % of control | [3] 112 % of control | [4] 102 % of control

CC1=C(C)C(C#N)N(C)CC1 (centres undefined)
inactive: [9] 102 % of control | [10] 100 % of control
